The assay addresses SARS-CoV-2 M^pro (main protease; 3CLpro) (Severe acute respiratory syndrome coronavirus 2, UniProt P0DTC1). The assay is described as follows: continuous FRET cleavage assay. The format is biochemical.
As usually defined, the IC50 is the concentration needed to halve the response being measured. Lower therefore signals inhibition by little substance. Regarding `Cc1ccc(NC(=O)C2CC(=O)Nc3cc(F)ccc32)c(OCC(F)(F)F)c1` (stereo not drawn) [compound 1, 7-fluoro-N-[4-methyl-2-(2,2,2-trifluoroethoxy)phenyl]-2-oxo-1,2,3,4-tetrahydroquinoline-4-carboxamide], the IC50 was determined as 86.6 µM.

The molecule `CCOc1cc(C)ccc1NC(=O)C1CC(=O)Nc2ccccc21` (stereo not drawn) [compound 4, N-(2-ethoxy-4-methylphenyl)-2-oxo-1,2,3,4-tetrahydroquinoline-4-carboxamide] had an IC50 of 32.6 µM. This IC50 lies about 2.7-fold lower than the previous one.

As to `O=C(Nc1ccccc1-c1nc2ccccc2[nH]1)c1cc(C2CC2)[nH]n1` [compound 5, N-[2-(1H-1,3-benzodiazol-2-yl)phenyl]-5-cyclopropyl-1H-pyrazole-3-carboxamide], the midpoint of inhibition, the IC50, lay at 70.5 µM.

These data come from paper PMC10966741, “Consensus Pharmacophore Strategy For Identifying Novel SARS-Cov-2 M^pro Inhibitors from Large Chemical Libraries” (Journal of Chemical Information and Modeling, 2024).
